Key:
AAH in SH-Sy5y cells = assay: Western blot of AAH expression in treated SH-Sy5y cells; assay type: cell-based, Human; conditions: up to 7 days, FIG. 5B
Protocol: (§1) Studies were conducted to determine whether AAH expression was modulated with neurite (filopodia) extension (sprouting) as occurs with invasive growth of malignant neoplasms. Human PNET2 CNS-derived and SH-Sy5y neuroblastoma cells were cultured and stimulated for 0, 1, 2, 3, 5, or 7 days with 100 nM phorbol […] or 10 μM retinoic acid to induce sprouting. In addition, to examine the effects of neurite retraction on AAH expression, subconfluent cultures were treated for 24 hours with low concentrations (10-40 μM) of H2O2. For both studies, AAH expression was evaluated by Western blot analysis using the an HAAH-specific antibody.
Cells grown in 10 cm^2 dishes were lysed and homogenized in a standard radioimmunoprecipitation assay RIPA buffer containing protease and phosphatase inhibitors. The supernatants collected after centrifuging the samples at 12,000×g for 10 minutes to remove insoluble debris were used for Western blot analysis. Protein concentration was measured using the BCA assay (Pierce Chemical Co, Rockford, Ill.). […] Immunoreactivity was detected with horseradish peroxidase conjugated IgG (Pierce Chemical Co, Rockford, Ill.) and enhanced chemiluminescence reagents. To quantify the levels of protein expression, non-saturated autoradiographs were subjected to volume densitometry using NIH Image software, version 1.6. […]

AAH in PNET2 cells = assay: Western blot of AAH expression in treated PNET2 cells; assay type: cell-based, Human
Protocol: as §1, with “In addition, to examine the effects of neurite retraction on AAH expression, subconfluent cultures were treated for 24 hours with low concentrations (10-40 μM) of H2O2.” left out
Cells grown in 10 cm^2 dishes were lysed and homogenized in a standard radioimmunoprecipitation assay RIPA buffer containing protease and phosphatase inhibitors. The supernatants collected after centrifuging the samples at 12,000×g for 10 minutes to remove insoluble debris were used for Western blot analysis. Protein concentration was measured using the BCA assay (Pierce Chemical Co, Rockford, Ill.). Samples containing 60 μg of protein were electrophoresed in sodium dodecyl sulfate polyacrylamide gels (SDS-PAGE) and subjected to Western blot analysis. Replicate blots were probed with the individual antibodies. Immunoreactivity was detected with horseradish peroxidase conjugated IgG (Pierce Chemical Co, Rockford, Ill.) and enhanced chemiluminescence reagents. To quantify the levels of protein expression, non-saturated autoradiographs were subjected to volume densitometry using NIH Image software, version 1.6. […]

human AAH cDNA (pHAAH) = assay: in vitro cell free transcription translation assay (TNT Quick Coupled System); assay type: biochemical; conditions: 100× or 1000× excess oligonucleotide; rabbit reticulocyte lysate, [35S] methionine, SDS-PAGE autoradiography
Protocol: Using an in vitro cell free transcription translation assay (TNT Quick Coupled System), the human AAH cDNA (pHAAH) was used to synthesize AAH protein. […] The translated product was labeled with [^35S] methionine in the presence of reaction buffer, RNA polymerase, amino acid mixture, and ribonuclease inhibitor (RNAsin). The products were analyzed by SDS-PAGE followed by autoradiography. A luciferase (Luc) expressing plasmid was used as a positive control. In the second and third lanes, synthesis of the ˜85 kD AAH protein is shown (AAH, arrow) using 1 or 2 micrograms of plasmid as the template and the T7 DNA-dependent RNA polymerase primer/promoter to generate mRNA.

AAH = assay: MICE assay of AAH immunoreactivity in transfected cells; assay type: cell-based; conditions: relative to cells transfected with random oligonucleotide
Protocol: Inhibition of HAAH gene expression is enhanced by contacting cells with a phosphorothioate derivative of the HAAH antisense. Phosphorothioate antisense derivatives are made using methods well known in the art. The MILQ assay was used to measure gene expression resulting from antisense oligonucleotide gene delivery. Cells were contacted with AAH Location-6 antisense DNA, and AAH protein expression was measured using methods known in the art, e.g., the MICE assay (de la Monte, et al, 1999, Biotechniques), to determine if it was inhibited by hybridization with the oligonucleotide. The MICE assay is used to measure inimunoreactivity in cultured cells without the need to extract proteins or perform gel electrophoresis. This assay is more sensitive than Western blot analysis. Using the MICE assay, AAH immunoreactivity was assessed in cells transfected with non-relevant (random) oligonucleotide sequences, specific antisense oligonucleotides (Location-6), and a phosphorothioate Location-6 antisense oligonucleotide.

HAAH gene expression = assay: insulin stimulation of HAAH gene expression in FOCUS HCC cells; assay type: cell-based, human; conditions: 20 and 40 U insulin, serum free medium, after 16 hr of serum starvation
Source text: IRS-1 mediated signal transduction pathway is activated in 95% of human HCC tumors compared to the adjacent uninvolved liver tissue. HAAH is a downstream effector gene involved in this signal transduction pathway. […] A high level of HAAH protein is expressed in HCC and cholangiocarcinoma compared to normal hepatocytes and bile ducts.

PNET2 cells = assay: Trypan blue dye exclusion viability; assay type: cell-based, Human; conditions: 24 hours, sub-lethal concentrations of H2O2
Protocol: FIGS. 5A-D are bar graphs showing increased AAH expression in PNET2 (FIGS. 5A, 5C) and SH-Sy5y (FIG. 5B) cells treated with retinoic acid (FIGS. 5A, 5B) or phorbol ester myristate (PMA; FIG. 5C) to induce neurite outgrowth as occurs during tumor cell invasion. The cells were treated with 10 μM retinoic acid or 100 nM PMA for 0, 1, 2, 3, 4, or 7 days. Cell lysates were analyzed by Western blot analysis using an HAAH-specific monoclonal antibody to detect the 85 kDa AAH protein. The levels of immunoreactivity were measured by volume densitometry (arbitrary units). The graphs indicate the mean±S.D. of results obtained from three separate experiments. In FIG. 5D, PNET2 cells were treated for 24 hours with sub-lethal concentrations of H2O2 to induce neurite retraction. […] Similar results were obtained for SH-Sy5y cells.
To examine the effect of AAH expression on neurite retraction, PNET2 and SH-Sy5y cells were treated with low concentrations (8-40 μM) of H2O2.

## CCCCCCCCCCCCCC(=O)O[C@@H]1[C@@H](C)[C@@]2(O)[C@@H](C=C(CO)C[C@]3(O)C(=O)C(C)=C[C@@H]23)[C@@H]2C(C)(C)[C@]12OC(C)=O [PMA, phorbol ester myristate]
AAH in SH-Sy5y cells
  RA- or PMA-stimulated increases in AAH expression: highest after 7 days of treatment
AAH in PNET2 cells; 24 hours after exposure, 10 μM retinoic acid or 100 nM PMA
  increase in levels of AAH protein: at least two-fold

## 5′ ATCATGCAATGGCCCAGCGTAA 3′ (sense ATCATGCAATGGCCCAGCGTAA; listed as DNA, chemistry not given here) [sense oligonucleotide, sense oligonucleotide beginning at Location-3, control]
Human AAH cDNA (pHAAH)
  inhibition of AAH protein synthesis: no effect

## 5′ TTACGCTGGGCCATTGCACG 3′ (antisense TTACGCTGGGCCATTGCACG; listed as DNA, chemistry not given here) [Location-6, AAH antisense oligonucleotide (20 mer)]
AAH
  AAH immunoreactivity: reduced levels

## Insulin: insulin used to stimulate FOCUS HCC cells
HAAH gene expression
  HAAH gene expression: upregulation

## OO [H2O2]
PNET2 cells
  Viability of the cells: greater than 90%
AAH in PNET2 cells; 24 hours, 8-40 μM H2O2, FIG. 5D
  levels of AAH protein: dose-dependent reductions
